Experimental data: PubChem BioAssay (NCI)
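In this assay, cells in 96-well plates receive the compound at five concentrations for 48 hours. Endpoints are linearly interpolated between the surrounding concentrations. Abbreviation: GI50, concentration required for 50% inhibition of growth. TGI: total growth inhibition.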

What was measured:
Assay in all cases: inhibition of tumour cell growth, NCI panel, 48 h
[1] = system: HS 578T breast
[2] = system: ACHN renal
[3] = system: A498 renal
[4] = system: CCRF-CEM leukemia
[5] = system: SK-MEL-5 melanoma
[6] = system: HL-60(TB) leukemia
[7] = system: T-47D breast
[8] = system: MALME-3M melanoma
[9] = system: NCI-H460 lung
[10] = system: SF-295 CNS
[11] = system: SN12C renal
[12] = system: CAKI-1 renal
[13] = system: IGROV1 ovarian
[14] = system: BT-549 breast
[15] = system: LOX IMVI melanoma
[16] = system: HCT-116 colon
[17] = system: M14 melanoma
[18] = system: TK-10 renal
[19] = system: OVCAR-4 ovarian
[20] = system: NCI-H522 lung
[21] = system: NCI/ADR-RES ovarian
[22] = system: EKVX NSCLC
[23] = system: SW-620 colon
[24] = system: MDA-MB-468 breast
[25] = system: HOP-92 NSCLC
[26] = system: NCI-H23 lung
[27] = system: SK-MEL-28 melanoma
[28] = system: OVCAR-3 ovarian
[29] = system: U251 CNS
[30] = system: KM12 colon
[31] = system: NCI-H226 lung
[32] = system: OVCAR-8 ovarian
[33] = system: SF-268 CNS
[34] = system: MOLT-4 leukemia
[35] = system: SNB-19 CNS
[36] = system: SK-OV-3 ovarian
[37] = system: OVCAR-5 ovarian
[38] = system: RXF 393 renal
[39] = system: A549 NSCLC
[40] = system: SR leukemia
[41] = system: HCT-15 colon
[42] = system: 786-0 renal
[43] = system: UACC-62 melanoma
[44] = system: SF-539 CNS
[45] = system: UO-31 renal
[46] = system: HOP-62 NSCLC
[47] = system: MDA-MB-435
[48] = system: COLO 205 colon
[49] = system: MCF7 breast
[50] = system: PC-3 prostate
[51] = system: RPMI-8226 leukemia
[52] = system: HCC-2998 colon
[53] = system: MDA-MB-231 breast
[54] = system: K-562 leukemia
[55] = system: SNB-75 CNS
[56] = system: UACC-257 melanoma
[57] = system: HT29 colon
[58] = system: DU-145 prostate
[59] = system: SK-MEL-2 melanoma

SMILES: C/C(=N\N=C\c1cc([N+](=O)[O-])ccc1Cl)c1ccc2c(c1)Nc1ccccc1S2
- GI50 [1]: 15 µM
- TGI [1]: 58.3 µM
- GI50 [2]: 2.87 µM
- TGI [2]: 8.59 µM
- GI50 [3]: 12.6 µM
- TGI [3]: 27.6 µM
- GI50 [4]: 11.4 µM
- TGI [4]: > 100 µM
- GI50 [5]: 24.9 µM
- TGI [5]: > 100 µM
- GI50 [6]: 24.2 µM
- TGI [6]: > 100 µM
- GI50 [7]: 4.3 µM
- TGI [7]: 25.8 µM
- GI50 [8]: 19.1 µM
- TGI [8]: > 100 µM
- GI50 [9]: 6.28 µM
- TGI [9]: 21.4 µM
- GI50 [10]: 13.5 µM
- TGI [10]: 35.1 µM
- GI50 [11]: 6.86 µM
- TGI [11]: 28.5 µM
- GI50 [12]: 12.5 µM
- TGI [12]: 27.7 µM
- GI50 [13]: 23.6 µM
- TGI [13]: > 100 µM
- GI50 [14]: 20.7 µM
- TGI [14]: > 100 µM
- GI50 [15]: 31.3 µM
- TGI [15]: > 100 µM
- GI50 [16]: 3.36 µM
- TGI [16]: 15.3 µM
- GI50 [17]: 51.7 µM
- TGI [17]: > 100 µM
- GI50 [18]: 11.4 µM
- TGI [18]: 24.9 µM
- GI50 [19]: 3.12 µM
- TGI [19]: 11.8 µM
- GI50 [20]: 12.2 µM
- TGI [20]: 41 µM
- GI50 [21]: 17.9 µM
- TGI [21]: 65.5 µM
- GI50 [22]: 19.3 µM
- TGI [22]: 79.8 µM
- GI50 [23]: 9.55 µM
- TGI [23]: 24.5 µM
- GI50 [24]: 1.83 µM
- TGI [24]: 18.6 µM
- GI50 [25]: 16.1 µM
- TGI [25]: 89.5 µM
- GI50 [26]: 16.3 µM
- TGI [26]: 45 µM
- GI50 [27]: > 100 µM
- TGI [27]: > 100 µM
- GI50 [28]: 11.3 µM
- TGI [28]: 24 µM
- GI50 [29]: 8.36 µM
- TGI [29]: 23.9 µM
- GI50 [30]: 35.8 µM
- TGI [30]: > 100 µM
- GI50 [31]: 17.7 µM
- TGI [31]: > 100 µM
- GI50 [32]: 12.2 µM
- TGI [32]: 35.8 µM
- GI50 [33]: 26.3 µM
- TGI [33]: > 100 µM
- GI50 [34]: 20.4 µM
- TGI [34]: > 100 µM
- GI50 [35]: 23.8 µM
- TGI [35]: > 100 µM
- GI50 [36]: 14.9 µM
- TGI [36]: 45.1 µM
- GI50 [37]: 28.4 µM
- TGI [37]: > 100 µM
- GI50 [38]: 16.6 µM
- TGI [38]: 94.5 µM
- GI50 [39]: 7.56 µM
- TGI [39]: 31.8 µM
- GI50 [40]: 13.5 µM
- TGI [40]: 81 µM
- GI50 [41]: 19.2 µM
- TGI [41]: > 100 µM
- GI50 [42]: 12.4 µM
- TGI [42]: 27.6 µM
- GI50 [43]: 29 µM
- TGI [43]: > 100 µM
- GI50 [44]: 16.9 µM
- TGI [44]: 35.2 µM
- GI50 [45]: 11.2 µM
- TGI [45]: 25.4 µM
- GI50 [46]: 16.6 µM
- TGI [46]: 39.8 µM
- GI50 [47]: 22.9 µM
- TGI [47]: > 100 µM
- GI50 [48]: 18.3 µM
- TGI [48]: > 100 µM
- GI50 [49]: 21.5 µM
- TGI [49]: > 100 µM
- GI50 [50]: 38.4 µM
- TGI [50]: > 100 µM
- GI50 [51]: 20.6 µM
- TGI [51]: > 100 µM
- GI50 [52]: 52.2 µM
- TGI [52]: > 100 µM
- GI50 [53]: 21.1 µM
- TGI [53]: 63 µM
- GI50 [54]: 16.8 µM
- TGI [54]: > 100 µM
- GI50 [55]: 12.6 µM
- TGI [55]: 33.4 µM
- GI50 [56]: 23.6 µM
- TGI [56]: > 100 µM
- GI50 [57]: 26 µM
- TGI [57]: > 100 µM
- GI50 [58]: 34.4 µM
- TGI [58]: > 100 µM
- GI50 [59]: 20.8 µM
- TGI [59]: 83.1 µM

SMILES: CC1[C@H]2[C@H](C[C@H]3[C@@H]4CC=C5c6sc(Nc7ccccc7F)nc6CC[C@]5(C)[C@H]4CC[C@@]32C)O[C@]12CC[C@@H](C)CO2 (stereo partly specified)
- GI50 [1]: > 100 µM
- TGI [1]: > 100 µM
- GI50 [2]: > 100 µM
- TGI [2]: > 100 µM
- GI50 [3]: > 100 µM
- TGI [3]: > 100 µM
- GI50 [4]: 5.1 µM
- TGI [4]: > 100 µM
- GI50 [5]: 31.7 µM
- TGI [5]: > 100 µM
- GI50 [6]: 30.1 µM
- TGI [6]: > 100 µM
- GI50 [7]: 25 µM
- TGI [7]: > 100 µM
- GI50 [8]: > 100 µM
- TGI [8]: > 100 µM
- GI50 [9]: 91.1 µM
- TGI [9]: > 100 µM
- GI50 [10]: 53.3 µM
- TGI [10]: > 100 µM
- GI50 [11]: > 100 µM
- TGI [11]: > 100 µM
- GI50 [12]: > 100 µM
- TGI [12]: > 100 µM
- GI50 [13]: > 100 µM
- TGI [13]: > 100 µM
- GI50 [14]: 26.4 µM
- TGI [14]: > 100 µM
- GI50 [15]: 67.1 µM
- TGI [15]: > 100 µM
- GI50 [16]: 37.3 µM
- TGI [16]: > 100 µM
- GI50 [17]: 86.7 µM
- TGI [17]: > 100 µM
- GI50 [18]: > 100 µM
- TGI [18]: > 100 µM
- GI50 [19]: > 100 µM
- TGI [19]: > 100 µM
- GI50 [20]: 34.7 µM
- TGI [20]: > 100 µM
- GI50 [21]: > 100 µM
- TGI [21]: > 100 µM
- GI50 [22]: > 100 µM
- TGI [22]: > 100 µM
- GI50 [23]: 76.1 µM
- TGI [23]: > 100 µM
- GI50 [24]: 25.1 µM
- TGI [24]: > 100 µM
- GI50 [25]: 42.3 µM
- TGI [25]: > 100 µM
- GI50 [26]: 59.5 µM
- TGI [26]: > 100 µM
- GI50 [27]: > 100 µM
- TGI [27]: > 100 µM
- GI50 [28]: > 100 µM
- TGI [28]: > 100 µM
- GI50 [29]: > 100 µM
- TGI [29]: > 100 µM
- GI50 [30]: > 100 µM
- TGI [30]: > 100 µM
- GI50 [31]: > 100 µM
- TGI [31]: > 100 µM
- GI50 [32]: > 100 µM
- TGI [32]: > 100 µM
- GI50 [33]: > 100 µM
- TGI [33]: > 100 µM
- GI50 [34]: 25.7 µM
- TGI [34]: > 100 µM
- GI50 [35]: > 100 µM
- TGI [35]: > 100 µM
- GI50 [36]: > 100 µM
- TGI [36]: > 100 µM
- GI50 [37]: > 100 µM
- TGI [37]: > 100 µM
- GI50 [38]: 9.09 µM
- TGI [38]: 66.7 µM
- GI50 [39]: > 100 µM
- TGI [39]: > 100 µM
- GI50 [40]: 24.8 µM
- TGI [40]: > 100 µM
- GI50 [41]: 56.1 µM
- TGI [41]: > 100 µM
- GI50 [42]: 85.4 µM
- TGI [42]: > 100 µM
- GI50 [43]: 43.1 µM
- TGI [43]: > 100 µM
- GI50 [44]: 80.9 µM
- TGI [44]: > 100 µM
- GI50 [45]: > 100 µM
- TGI [45]: > 100 µM
- GI50 [46]: > 100 µM
- TGI [46]: > 100 µM
- GI50 [47]: 95.4 µM
- TGI [47]: > 100 µM
- GI50 [48]: 62.1 µM
- TGI [48]: > 100 µM
- GI50 [49]: 38.2 µM
- TGI [49]: > 100 µM
- GI50 [50]: 26.3 µM
- TGI [50]: > 100 µM
- GI50 [51]: 35.5 µM
- TGI [51]: > 100 µM
- GI50 [52]: > 100 µM
- TGI [52]: > 100 µM
- GI50 [53]: > 100 µM
- TGI [53]: > 100 µM
- GI50 [54]: 26.6 µM
- TGI [54]: > 100 µM
- GI50 [55]: 31.2 µM
- TGI [55]: > 100 µM
- GI50 [56]: 54.1 µM
- TGI [56]: > 100 µM
- GI50 [57]: 60.3 µM
- TGI [57]: > 100 µM
- GI50 [58]: > 100 µM
- TGI [58]: > 100 µM
- GI50 [59]: > 100 µM
- TGI [59]: > 100 µM
